Values quoted from earlier work, collected in PMC9045302, “The Characterization of an Efficient Phenylpyruvate Decarboxylase KDC4427, Involved in 2-Phenylethanol and IAA Production from Bacterial Enterobacter sp. CGMCC 5087” (Microbiology Spectrum, 2022).

What was measured:
KDC4427 [1] = target: T1, KDC4427 (Enterobacter sp. CGMCC 5087, UniProt Z9M8L3KFT6); assay: coupled assay with yeast alcohol dehydrogenase, NADH at […] nm; format: biochemical; settings: pH 7.0, 37°C, 0.2 mM ThDP, 0.1 mM MgSO4; footnote: authors' own data cited from their unpublished paper
T1 construct: tetramer stated from homology model; ThDP/Mg2+ dependent

KDC4427 [2] = target: T1, KDC4427; assay: as above; format: biochemical; settings: pH 7.0, 37°C, 0.2 mM ThDP, 0.1 mM MgSO4; footnote: authors' own data cited from their unpublished paper; remark: listed apart in the source

Compound | Km (KDC4427 [1]) | Km (KDC4427 [2])
O=C(O)C(=O)Cc1c[nH]c2ccccc12 [Indole-3-pyruvic acid] | 0.015 ± 0.002 mM | –
O=C(O)C(=O)Cc1ccccc1 [Phenylpyruvic acid] | – | 0.6 ± 0.02 mM
